This note sets out measurements from PubChem BioAssay AID463074 (Broad Institute, 2010).

In general, AC50 refers to the concentration giving half of the maximal activity seen.

Calls of active or inactive are those of the source.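 The calls were made as follows: active = AC50 no more than tenfold above the top dose tested, or full inhibition at every dose with a flat fit (cut at about 19 µM in these data); inconclusive = flat curve fit with inhibition between 30% and 70%, or poor fit; inactive = AC50 more than tenfold above the top dose tested.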

In this experiment the test system is HMLE_sh_eGFP viability, CellTiter-Glo luminescence, 72 h. As to the kind of experiment: viability loss of HMLE_sh_eGFP cells – cell-based, luminescence, counter-screen for HMLE_sh_ECad selective toxicity project, dose response (AID 463074).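 Also: counterscreen control line to flag general toxicity for the HMLE_sh_ECad screen; potency for loss of viability as luminescence drops below DMSO wells.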
With `Cc1ccc2c(c1)c1c(n2CC(O)CNC2CCCCC2)CCCC1` (stereo not drawn), the AC50 was 8.31 µM.
Then `CCCOC(=O)C(=O)NNc1ccccc1`, with 1.81 µM.
Consider `CC(C)(C)c1cc(C(=O)N/N=C/c2ccccc2O)n(-c2ccccc2)n1`, for which the concentration at half-maximal activity (AC50) is 4.41 µM.
To `Cc1oc2c(c1C(=O)N1CCC(C)CC1)C(=O)c1ccccc1C2=O` belongs 7.99 µM; to `CCn1c(C)c(C)c2cc(C(=O)N3CCN(c4cccc(C)c4C)CC3)ccc21`, 5.44 µM; to `CCN(CC)c1ccc(C(=O)OCc2cc(=O)oc3cc(O)ccc23)cc1`, 16.2 µM.
Then `CCC(O)(CC)C(=O)N/N=C/c1cc(Br)cc(Br)c1O`, with 19.8 µM; and `CC(C)=CCC/C(C)=C/Cc1c(O)ccc(C(=O)/C=C/c2ccc(O)cc2)c1O`, with 6.42 µM; and `CC1CCN(c2nc(Cl)nc(Nc3ccc([N+](=O)[O-])cc3)n2)CC1`, with 3.41 µM.
Then `CC(C)CN=C(NS(=O)(=O)c1ccccc1)C(Cl)(Cl)Cl`, with 3.27 µM; and `CCCCCCSc1ccc(-c2nc3cnccn3c2NCCCC)cc1`, with 4.07 µM.
With `Cc1csc(N/N=C/c2ccccn2)n1`, the AC50 was 11 µM.
To `Oc1cccc(/C=C/c2ccc3cccc(O)c3n2)c1` belongs 4.83 µM; to `COc1ccc(/C=C/C(=O)c2ccc([N+](=O)[O-])o2)cc1OC`, 2.47 µM.
Then `O=C1CC(=C(c2ccccc2)c2ccccc2)C(=O)N1CCCCN1CCN(c2cccc(Cl)c2)CC1`, with 2.02 µM.
To `CCCCNC(=O)c1ccc(Cn2c(=S)[nH]c3c([nH]c4ccc(OC)cc43)c2=O)cc1` belongs 1.38 µM; to `Cn1nnnc1Sc1ncnc2scc(-c3ccc(Cl)cc3)c12`, 3.3 µM.
With `O=C1C2C(c3ccccc3)CC=CC2[C@H](c2ccc(C(F)(F)F)cc2)N1Cc1ccccc1` (stereo partly drawn), the half-maximal activity concentration (AC50) was 5.89 µM.
Then `O=[N+]([O-])c1cccnc1N1CCC(c2cc(-c3ccc(Cl)cc3Cl)n[nH]2)CC1`, with 4.6 µM; and `CCN1C(=O)/C(=C\c2ccncc2)SC1=Nc1ccc(C)c(C)c1`, with 6.82 µM; and `CCN(CC)c1ccc2cc(S(=O)(=O)c3ccc(Cl)cc3)c(=O)oc2c1`, with 4.98 µM.
To `NS(=O)(=O)c1ccc(N=Cc2c(O)n(C3CCCCC3)c(=O)n(C3CCCCC3)c2=O)cc1` belongs 3.81 µM; to `CCC(C)n1ncn(-c2ccc(N3CCN(c4ccc(O)cc4)CC3)cc2)c1=O` (stereo not drawn), 1.47 µM; to `C[C@H]1CCC/C=C/[C@@H]2C[C@H](O)C[C@H]2[C@H](O)/C=C/C(=O)O1`, less than 0.16 µM.
With `CC1(C)C=Cc2c(ccc3c2OC[C@H](c2ccc(O)cc2O)C3)O1`, the AC50 is 4.43 µM.
Then `CCCCNC(=S)N(C)/N=C/c1ccc2c(c1)OCO2`, with 16.3 µM; and `COc1ccc(Cn2c(SCc3ccccc3C)nc3cc(OC)c(OC)cc3c2=N)cc1`, with 3.7 µM.
Then `CCN1C(=O)C(=Cc2cccc(OC)c2Oc2ccc([N+](=O)[O-])cc2[N+](=O)[O-])SC1=S`, with 2.27 µM; and `O=C(Nc1ccc([N+](=O)[O-])cc1)Nc1ccc(OC(F)F)c(Cl)c1`, with 2.09 µM; and `C=C(C)CNC(=S)NNC(=O)CCn1c2ccc(Cl)cc2c2cc(Cl)ccc21`, with 1.8 µM.
To `CCCCCCc1cc2cc(S(=O)(=O)c3ccc(Cl)cc3)c(=O)oc2cc1O` belongs 9.25 µM; to `Cc1ccc(S(=O)(=O)N2[C@@H](c3ccc(C(C)(C)C)cc3)C(C(=O)O)=CC[C@H]2c2cccc(Cl)c2)cc1`, 4.26 µM; to `O=C(/C(=C/c1cccc(Cl)c1)c1nc2ccccc2[nH]1)c1ccccc1`, 3.35 µM.
Regarding `Cc1cc(C)nc(NC(=O)c2ccc(COc3ccccc3Cl)cc2)c1`, the AC50 is 0.401 µM.
To `Cc1ccc(NC(=O)c2ccc(Cl)c(N3C(=O)C=CC3=O)c2)cc1` belongs 8.19 µM.
For the compound `COc1ccc(C(=O)C2CCCN(Cc3cc(C)c(O)c(C)c3)C2)c(OC)c1` (stereo not drawn), the half-maximal activity concentration (AC50) is 4.9 µM.
Then `O=C(Nc1cccc(NC(=O)c2ccc([N+](=O)[O-])o2)c1)c1ccco1`, with 7.23 µM; and `Oc1c(Cl)cc(Cl)cc1CNc1ccc(Br)cn1`, with 3.68 µM; and `Fc1cccc(-n2c(-c3cccs3)nc3nc4ccccc4nc32)c1`, with 2.32 µM.
To `Cc1nc(Nc2ccc(Cl)cc2Cl)sc1C(=O)Nc1ccccc1` belongs 11.5 µM; to `Cc1cccc(CN2CCN(C(c3ccccc3)c3ccc(Cl)cc3)CC2)c1` (stereo not drawn), 4.76 µM; to `Cn1c(N)c(C(=O)COC(=O)c2ccccc2C(=O)c2ccc(Cl)c([N+](=O)[O-])c2)c(=O)n(C)c1=O`, 3.61 µM.
Then `CCS(=O)(=O)Nc1ccc(-c2cc(-c3ccccc3)c3cc(C)ccc3n2)cc1`, with 3.85 µM; and `CN1C(=O)/C(=C/c2cccc(Cl)c2)Sc2ccc(C(=O)NCc3cccnc3)cc21`, with 5.15 µM; and `COc1ccc(N(C(=O)c2ccccc2C)S(=O)(=O)c2cccs2)cc1`, with 0.231 µM.
Consider `OCCCNc1nc(-c2ccccc2)c2cc(Br)ccc2n1`, for which the AC50 was > 19.5 µM (inactive).
To `CCN(c1ccccc1)c1nc(C#N)nc(N(CC)c2ccccc2)n1` belongs 7.07 µM; to `CC(C)N(CCC(=O)c1ccc2ccccc2c1)Cc1ccccc1`, 9.86 µM; to `COC(=O)c1sc2nc(N3CCCCC3)c3c(c2c1N)CCCC3`, 4.94 µM.
Then `CC1CCCC(NCC(O)COC(c2ccc(F)cc2)c2ccc(F)cc2)C1C` (stereo not drawn), with 6.69 µM; and `Cc1ccccc1OCC(O)Cn1c2ccccc2c2ccccc21` (stereo not drawn), with 6.78 µM; and `O=C(COC(=O)/C=C/C(=O)OCC(=O)Nc1ccccc1F)Nc1ccccc1F`, with 9.61 µM.
To `c1ccc(-c2cc(-c3ccncc3)nc3ccc4ccccc4c23)cc1` belongs 3.61 µM; to `CC(C)(CN1CCN(Cc2ccccc2)CC1)NS(=O)(=O)c1ccccc1`, 8.78 µM.
For `Cc1occc1C(=O)Nc1ccc(OCc2ccccc2)cc1`, the AC50 was 6.25 µM.
`CC(C)C(=O)NC(c1ccccc1)c1cc([N+](=O)[O-])c2cccnc2c1O` (stereo not drawn): the AC50 is 5.91 µM.
For the compound `C/C(N)=C(/C#N)C(=O)COC(=O)c1cc(-c2ccc(C)cc2)nc2ccccc12`, the AC50 is 15 µM.
With `COc1cc(NC(=O)c2csc(N)n2)cc(C(=O)Nc2cccc(C(F)(F)F)c2)c1`, the AC50 is 5.65 µM.
As for `Cn1nc(-c2ccccc2F)c2cc(C(=O)Nc3ccc4c(c3)OCCO4)sc21`, the AC50 is > 19.5 µM (inactive).
Take `CC(=O)O[C@H]1[C@@H](O)[C@H](O)[C@H](Oc2c(O)c(C)c3c4c2[C@@H](C)CC[C@@H]4[C@@H](C)C[C@H]3C=C(C)C)O[C@H]1C`: the AC50 was 3.57 µM.
Regarding `COc1ccc(Nc2nc(-c3cccc([N+](=O)[O-])c3)nc3ccccc23)cc1`, the AC50 was 17.8 µM.
To `C=CCc1cccc(CNc2nc3ccccc3n2CCC)c1O` belongs 13.5 µM.
In the case of `CC(C)(C)c1ccc(C(=O)NC(=S)Nc2nc3c(s2)CCCC3)cc1`, the AC50 was 2.18 µM.
Then `O=C(/C=C/c1c(F)cccc1Cl)c1ccc(O)cc1`, with 7.97 µM; and `COc1cc(OC)c2cc(C(=O)N/N=C/c3cccc(OC)c3O)[nH]c2c1`, with 6.08 µM.
`C/C(NC(=O)c1cccc(F)c1)=C1/C(=O)C[C@@H]2[C@H]1C2(C)C`: the half-maximal activity concentration (AC50) is 2.13 µM.
To `COc1ccccc1-c1oc2ccccc2c1C#CC1(N)CCCCC1` belongs 6.39 µM.
To `CC(NC(=O)COC(=O)c1cc(NS(=O)(=O)c2ccc(Cl)c([N+](=O)[O-])c2)ccc1O)C1CC2CCC1C2` (stereo not drawn) belongs 3.52 µM; to `Cc1cccc(NC(=O)c2nc[nH]c2C(=O)N[C@H](C)c2ccccc2)c1`, 7.13 µM; to `CCN(CC(=O)NC1CCCCC1)S(=O)(=O)c1ccc(Cl)cc1`, > 19.5 µM (inactive).
To `CSc1ccc(C2=CC(=O)C[C@H](c3ccc(Cl)cc3)C2)cc1` belongs 9.27 µM; to `Cc1cccc(CNc2ccc(C(CC(N)=O)NC(=O)Cc3cccc4ccccc34)cc2[N+](=O)[O-])c1` (stereo not drawn), 13.7 µM.
With `Cc1cc2nc(NCCCO)n(CC(=O)c3cc(C(C)(C)C)c(O)c(C(C)(C)C)c3)c2cc1C`, the AC50 is 3.56 µM.
To `COc1cccc(/C=N/Nc2ncc(C(F)(F)F)cc2Cl)c1O` belongs 0.665 µM.
Then `COc1ccc2c(c1)[nH]c1c(=O)n(/N=C/C3C(C)C=C(C)CC3C)c(=O)[nH]c12` (stereo not drawn), with > 19.5 µM (inactive); and `O=[N+]([O-])c1c(NCCCO)cc(Sc2ccc(Cl)cc2)c2nonc12`, with 4.89 µM; and `Cc1c(C)n(CCc2ccccc2)c2ncnc(NCCCN(C)C)c12`, with 5.52 µM.
Then `C=CCC[C@H](Cc1ccc(F)cc1)C(=O)OC[C@@H](Cc1c[nH]c2ccccc12)NC(=O)[C@H](CC=C)CC(=O)N(CCO)Cc1ccccc1`, with 4.1 µM; and `COC(=O)c1ccccc1NCc1cc(=O)oc2cc(O)c(O)cc12`, with 10.9 µM; and `Cc1ccc(C(=O)N2N=C(c3ccc(Br)cc3)CC2c2ccccc2O)cc1` (stereo not drawn), with 3.54 µM.
With `O=C(Nc1ccc2c(c1)OCO2)c1cc(-c2cccc(O)c2)on1`, the concentration at half-maximal activity (AC50) is 1.65 µM.
To `N#C/C(=C\c1c[nH]c2ccc(Br)cc12)c1ccccn1` belongs 10.3 µM.
Take `CCN(CC)CCOc1ccc(/C(=C(\Cl)c2ccccc2)c2ccccc2)cc1`: the AC50 was 1.55 µM.
Then `COC(=O)c1c(NC(=O)Cc2cccs2)sc2c1CCC(C)C2` (stereo not drawn), with 9.75 µM; and `CCOC(=O)c1cnc(-n2nc(C)cc2C)nc1NNc1nc(-c2ccccc2)cc(-c2ccccc2)n1`, with 3.25 µM; and `COc1cc(CN2CCN(c3cccc(Cl)c3)CC2)cc(OC)c1OC`, with 2.58 µM.
With `CCOC(=O)c1c(C)[nH]c(C(=O)N/N=C\c2ccccc2O)c1C`, the AC50 was 8.76 µM.
On to `CC(C)[C@@H]1CC[C@@H](C)c2c(-c3ccccc3)n[nH]c21`, for which the half-maximal activity concentration (AC50) was 6.38 µM.
To `Oc1ccccc1-n1c(-c2ccccc2)ccc1-c1ccccc1` belongs 7.62 µM.
Then `CCC1=Nc2cc(C(=O)NCc3cccnc3)ccc2Sc2ccc(C)cc21`, with 0.816 µM; and `Cc1[nH]nc2nc(SCC(=O)NC3CCCCC3)n(-c3ccc(Br)cc3)c(=N)c12`, with 14.4 µM; and `CC1(C)C[C@@H]2C[C@@](C)(CN2C(=O)c2cc(COc3cccc(C(F)(F)F)c3)on2)C1`, with 4.8 µM.
To `C/C(=N/NC(=O)c1ccc(-c2ccccc2)cc1)c1cc(O)cc(O)c1` belongs 3.85 µM.
